What all share (test): cells
One assay concerns HeLa cells. It is filed as cell-based. The conditions noted are these: Homo sapiens, HeLa, HeLa, read-out: CellCycle G2/M.
Assay [1] deals with HCT116 cells treated with a GSK3β inhibitor. It is filed as cell-based.
For the next assay, the system named is SNU-C1. It is filed as cell-based.
The subject of assay [2] is endothelial tube formation in co-cultures of ECFCs and ADSCs treated with VEGF. It is filed as cell-based, human.
A further assay deals with RKO. It is filed as cell-based.
In assay [3] the test system is nuclear β-catenin in C2C12 cells. The assay is classed as cell-based.
For a further assay, the system named is Colo320. The assay is classed as cell-based.
The subject of the next assay is DLD-1. It is filed as cell-based.
Another assay deals with HCT116. It is filed as cell-based.
For the next assay, the system named is SW480. The assay is classed as cell-based.
Another assay deals with NCI-H716 cells. It is filed as cell-based, Human.
Another assay has as its system HT-29. It is filed as cell-based.
A further assay deals with INS-1E cells. It is filed as cell-based, rat.
Setting [4] is: Homo sapiens, HCT-116, GSK3b inhibitor pretreated, read-out: GSK3b inh pretreated_Viability ATP HCT116.
Setting [5] is: Homo sapiens, SNU-C1, basal, read-out: Basal_Viability ATP SNU-C1.
Where [6] appears, read: Homo sapiens, IC50 / EC50; endothelial tube area, ADSC/ECFC co-culture; read-out: Anti-Angiogenesis.
[7] abbreviates: Homo sapiens, RKO; read-out: Basal_Viability ATP RKO.
The mark [8] stands for this setting: Mus musculus, C2C12, IC50 / EC50, C2C12 beta-catenin translocation, read-out: Wnt Pathway.
The mark [9] stands for this setting: Homo sapiens, COLO 320; read-out: Basal_Viability ATP Colo 320.
[10] abbreviates: Homo sapiens, DLD-1, basal, read-out: Basal_Viability ATP DLD-1.
The mark [11] stands for this setting: Homo sapiens, HCT-116, basal, read-out: Basal_Viability ATP HCT116.
The mark [12] stands for this setting: Homo sapiens, SW480, basal, read-out: Basal_Viability ATP SW480.
Setting [13] is: Homo sapiens; IC50 / EC50; NCI-H716; read-out: GLP 1 Secretion.
The mark [14] stands for this setting: Homo sapiens, HT-29, read-out: Basal_Viability ATP HT-29.
Setting [15] is: Rattus norvegicus; IC50 / EC50; INS-1E; read-out: Insulin Secretion.
Where [16] appears, read: Homo sapiens, HCT-116, read-out: GSK3b inh pretreated_Viability ATP HCT116.
Setting [17] is: Homo sapiens, SNU-C1, basal, SNU-C1, read-out: Basal_Viability ATP SNU-C1.
Setting [18] is: Mus musculus, C2C12, S2 Table, module primary assay, 20 / 20.1 codes per legend, read-out: Wnt Pathway.
[19] abbreviates: Homo sapiens; basal; Colo 320; read-out: Basal_Viability ATP Colo 320.
[20] abbreviates: Homo sapiens, DLD-1, basal, DLD-1, read-out: Basal_Viability ATP DLD-1.
Setting [21] is: Homo sapiens, HCT-116, basal, HCT116, read-out: Basal_Viability ATP HCT116.
Setting [22] is: Homo sapiens, SW480, basal, SW480, read-out: Basal_Viability ATP SW480.
[23] abbreviates: Homo sapiens, NCI-H716; read-out: GLP 1 Secretion.
Setting [24] is: Homo sapiens; basal; HT-29; read-out: Basal_Viability ATP HT-29.
The mark [25] stands for this setting: Rattus norvegicus, INS-1E; read-out: Insulin Secretion.
Setting [26] is: Homo sapiens, RKO, read-out: Basal_Viability ATP RKO.

Our source for the EC50 and IC50 values is paper PMC4503722, “Novel Phenotypic Outcomes Identified for a Public Collection of Approved Drugs from a Publicly Accessible Panel of Assays” (PLoS ONE, 2015).

Read-outs that look alike come from different tables or passages of the source.

Consider `CN(C)CCOC(c1ccccc1)c1ccc(Br)cc1` (centres unmarked) [Bromazine], for which the EC50 was over 10000 nM in the assay with HeLa cells (IC50 / EC50), over 10000 nM in assay [3] (setting [8]), over 10000 nM with NCI-H716 cells (setting [13]) and 2770 nM in the assay with INS-1E cells (setting [15]). The IC50 in assay [1] (setting [4]) was over 20000 nM; in the assay with SNU-C1 (setting [5]), 3100 nM; in assay [2] (setting [6]) it was over 10000 nM; in the assay on RKO (setting [7]), over 20000 nM; in the assay on Colo320 (setting [9]), over 20000 nM; in the assay on DLD-1 (setting [10]) it was over 20000 nM. Also, the IC50 in the assay on HCT116 (setting [11]) is over 20000 nM; in the assay with SW480 (setting [12]), over 20000 nM; with HT-29 (setting [14]), 17000 nM.

As to `CCCCOC(=O)c1ccc(N)cc1` [Butyl aminobenzoate], the EC50 in the assay with HeLa cells (S2 Table, 20 = no response at highest concentration) is over 10000 nM; in [3] (setting [18]), over 10000 nM; with NCI-H716 cells (setting [23]), over 10000 nM; with INS-1E cells (setting [25]), over 10000 nM. For the same compound, the IC50 in assay [1] (setting [16]) is 5610 nM; with SNU-C1 (setting [17]), over 20000 nM; in assay [2] (Homo sapiens, S2 Table; module primary assay; 20 = no response at highest concentration, 20.1 = inactive in single concentration testing; read-out: Anti-Angiogenesis), over 10000 nM; with RKO (Homo sapiens; basal; RKO; read-out: Basal_Viability ATP RKO), 137 nM; in the assay on Colo320 (setting [19]), over 20000 nM; in the assay on DLD-1 (setting [20]), 4560 nM. Further, the IC50 in the assay with HCT116 (setting [21]) is over 20000 nM; with SW480 (setting [22]), 586 nM; in the assay with HT-29 (setting [24]), over 20000 nM.

With `CC(=O)[O][Hg][c]1ccccc1` [Mercury, (acetato-o)phenyl-], the IC50 in assay [1] (HCT116 pretreated with GSK3b inhibitor, read-out: GSK3b inh pretreated_Viability ATP HCT116) worked out at 360 nM; in the assay on SNU-C1 (basal, SNU-C1, read-out: Basal_Viability ATP SNU-C1) it was 192 nM; in assay [2] (read-out: Anti-Angiogenesis), 530 nM; with RKO (basal; RKO; read-out: Basal_Viability ATP RKO), 1200 nM; in the assay with Colo320 (basal; Colo 320; read-out: Basal_Viability ATP Colo 320) it was 1300 nM; in the assay on DLD-1 (basal, DLD-1, read-out: Basal_Viability ATP DLD-1) it was 736 nM. For the same compound, the IC50 was determined as 2800 nM in the assay on HCT116 (basal, HCT116, read-out: Basal_Viability ATP HCT116); 543 nM in the assay with SW480 (basal, SW480, read-out: Basal_Viability ATP SW480); 799 nM with HT-29 (basal; HT-29; read-out: Basal_Viability ATP HT-29). For the same compound, the EC50 in assay [3] (S2 Table, module primary assay, 20 / 20.1 codes per legend, read-out: Wnt Pathway) was over 10000 nM; in the assay with NCI-H716 cells (read-out: GLP 1 Secretion) it was 713 nM; with INS-1E cells (S2 Table; module primary assay; 20 / 20.1 codes per legend; read-out: Insulin Secretion), over 10000 nM.

For the compound `O=C(Nc1ccc(Oc2ccc(Cl)cc2)c(Cl)c1)c1cc(I)cc(I)c1O` [Rafoxanide], the IC50 in assay [1] (setting [4]) was 66.7 nM; in the assay with SNU-C1 (setting [5]), 14.3 nM; in assay [2] (setting [6]), over 10000 nM; in the assay with RKO (setting [7]), 30.3 nM; in the assay on Colo320 (setting [9]) it was 54 nM; with DLD-1 (setting [10]) it was 8.4 nM. Moreover, the IC50 in the assay on HCT116 (setting [11]) was found to be 16.9 nM; in the assay with SW480 (setting [12]), 10.8 nM; in the assay with HT-29 (Homo sapiens, HT-29; read-out: Basal_Viability ATP HT-29) it was 9.5 nM. In addition, the EC50 in assay [3] (setting [8]) was over 10000 nM; in the assay with NCI-H716 cells (setting [13]) it was 1300 nM; with INS-1E cells (setting [15]) it was over 10000 nM.

On to `CN(C)c1ccc(C(=C2C=CC(=[N+](C)C)C=C2)c2ccccc2)cc1` [malachite green], for which the IC50 in assay [1] (setting [16]) was 9.83 nM; in the assay on SNU-C1 (Homo sapiens, SNU-C1, read-out: Basal_Viability ATP SNU-C1) it was 35.4 nM; in [2] (Homo sapiens, read-out: Anti-Angiogenesis) it was 60.5 nM; with RKO (setting [26]) it was 118 nM; in the assay with Colo320 (Homo sapiens, COLO 320, read-out: Basal_Viability ATP Colo 320), 161 nM; in the assay on DLD-1 (Homo sapiens, DLD-1, read-out: Basal_Viability ATP DLD-1), 21.8 nM. The IC50 is 17.9 nM in the assay with HCT116 (Homo sapiens, HCT-116, read-out: Basal_Viability ATP HCT116); 9.22 nM in the assay on SW480 (Homo sapiens, SW480, read-out: Basal_Viability ATP SW480); 9.82 nM with HT-29 (setting [14]). For the same compound, the EC50 in assay [3] (Mus musculus, C2C12, read-out: Wnt Pathway) was 363 nM; in the assay on NCI-H716 cells (Homo sapiens, NCI-H716, read-out: GLP 1 Secretion) it was over 10000 nM; in the assay on INS-1E cells (Rattus norvegicus, INS-1E, read-out: Insulin Secretion) it was over 10000 nM.

On to `COP(=S)(OC)Oc1ccc(Sc2ccc(OP(=S)(OC)OC)cc2)cc1` [temephos], for which the IC50 is over 20000 nM in assay [1] (Homo sapiens, HCT-116, HCT116 pretreated with GSK3b inhibitor, read-out: GSK3b inh pretreated_Viability ATP HCT116); 3030 nM in the assay on SNU-C1 (setting [17]); over 10000 nM in assay [2] (Homo sapiens; read-out: Anti-Angiogenesis); 12100 nM in the assay on RKO (setting [26]); over 20000 nM in the assay with Colo320 (setting [19]); over 20000 nM in the assay on DLD-1 (setting [20]). Moreover, the IC50 is over 20000 nM in the assay with HCT116 (setting [21]), 11.8 nM in the assay on SW480 (setting [22]) and over 20000 nM in the assay with HT-29 (setting [24]). For the same compound, the EC50 (in assay [3] (setting [18]); in the assay on NCI-H716 cells (setting [23]); in the assay on INS-1E cells (setting [25])) was over 10000 nM in each case.
